Assay [1] deals with T1, hFPR1 (Homo sapiens, UniProt P21462).
T1 construct: expressed in transfected cells
T1 sequence (P21462 1-350): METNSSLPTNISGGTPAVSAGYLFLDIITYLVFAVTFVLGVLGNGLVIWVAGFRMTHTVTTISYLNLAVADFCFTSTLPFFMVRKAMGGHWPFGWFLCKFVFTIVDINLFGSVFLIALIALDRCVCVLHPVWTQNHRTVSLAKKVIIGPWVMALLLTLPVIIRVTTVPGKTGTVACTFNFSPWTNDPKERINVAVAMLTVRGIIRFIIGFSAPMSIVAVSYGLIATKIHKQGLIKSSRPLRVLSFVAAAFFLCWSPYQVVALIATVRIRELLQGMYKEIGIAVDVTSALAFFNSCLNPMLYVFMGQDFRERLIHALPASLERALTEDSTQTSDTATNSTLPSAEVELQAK
The experiment in a line: [Ca2+]i mobilization in FlpIn-CHO cells stably expressing hFPR1. The class given is cell-based. Also noted: Calcium Rmax: unit not given here. The settings on record: for Emax: Flp-In-CHO. The source says: cDNDA construct and generation of stable cell lines: cDNA in pcDNA3.1^+ encoding the human formyl peptide receptors (FPR) subtypes, hFPR1, hFPR2 and hFPR3 was obtained from Invitrogen. The sequences for 3 hFPR receptors were amplified by PCR and cloned into the Gateway entry vector, pDONR202™, using the BP clonase enzyme mix, according to the manufactures' instructions (Invitrogen Inc, Carlsbad, Calif., USA). All hFPR receptors constructs in pDONR201™ were subsequently transfected into the pEF5/FRT/V5/dest vector using the LR clonase enzyme mix (Invitrogen). Receptor constructs (pEF5/FRT/V5/dest) were used to transfect FIp-In CHO cells as described previously (Valant C et al., PNAS, 2014). Cells were selected using 500 μg/mL hydromycin to generate cell lines stably expressing each receptor construct. Cells were maintained and cultured in high glucose DMEM supplemented with 10% FBS, 16 mM HEPES and 500 μg/mL hydromycin at 37° C. under a humidified atmosphere containing 5% CO2.
In the various assays described below, cells were plated into 96-well transparent cell culture plates at 4×10^4 cells per well, cultured overnight in serum-free media at 37° C. in 5% CO2.
Intracellular calcium mobilization: Intracellular calcium mobilization was assayed as described previously (Keov, P et al., 2014). Briefly, cells were washed once using HEPES buffered saline (HBS) solution [150 mM NaCl, 2.2 mM CaCl2, 2.6 mM KCl, 1.2 mM MgCl2, 10 mM HEPEs, 10 mM D-Glucose, 0.5% (w/v) bovine serum albumin (BSA) and 4 mM probenecid] at pH 7.4, then treated with Fluo-4-AM (1 μM, in HBS/BSA/probenecid) for 60 min at 37° C. in 5% CO2 in the dark. Cells were then further washed and placed in HBS/BSA/probenecid solution for ligation addition and assay using the FLEXstation 3 plate reader (Molecular Devices, Sunnyvale, Calif.). For all experiments, peak change in fluorescence signal was normalized to the cellular response to 100 μM ATP, which was used as an internal positive control.
Data analysis: All data were analysed using GraphPad Prism 6.0 (GraphPad Software, San Deigo, Calif., USA). Where appropriate, concentration-response curves were fitted to derive the maximal agonist effect (Emax), and the ligand potency estimate (pEC50), where Emax is the maximal possible response of the system (not the agonist), basal is the basal level of response in the absence of agonist, and pEC50 is the negative logarithm of the agonist concentration that gives a response halfway between Emax and basal.
In the present study, FIp-IN CHO cells and Gateway plasmid were obtained from Invitrogen Inc (Carlsbad, Calif., USA). The sequences for all 3 known human FPRs (hFPR1, hFPR2 and hFPR3) were amplified by PCR and cloned into the Gateway entry vector, pDONR202TM, using the BP clonase enzyme mix, according to the manufacturers' instructions. The hFPR pDONR201TM constructs were subsequently transfected into the pEF5/FRT/V5/dest vector using the LR clonase enzyme mix (Invitrogen). Receptor constructs (pEF5/FRT/V5/dest) were used to transfect FIp-IN CHO cells, as described previously (Valant et al. 2014). Cells were selected using 500 μg/mL hydromycin to generate cell lines stably expressing each human receptor construct. Cells were maintained and cultured in high glucose Dulbecco's modified eagle medium (DMEM) supplemented with 10% fetal bovine serum (FBS, from JRH Biosciences, Lenexa, Kans., USA) and 500 μg/mL hydromycin B (Invitrogen Inc) at 37° C. under a humidified atmosphere containing 5% CO2. Cell were plated into 96-well transparent cell culture plates at 4×10^4 cells per well, cultured overnight in serum-free media at 37° C. in 5% CO2.
(ii) Intracellular Ca2+ mobilization: Intracellular Ca2+ mobilization was determined in stably-transfected recombinant hFPR CHO cells, as described previously (Valant et al. 2014).

In assay [2] the target is T1, hFPR1. As to the kind of experiment: Quantification of biased agonism (operational model) at hFPR1 in CHO cells. The class given is cell-based. The conditions noted are these: for Bias (away from Ca2+i), hFPR1-FlpInCHO cells in vitro: Table 9.
Description: To quantify biased agonism mediated by each agonist across the various pathways ([Ca^2+], mobilization, pERK1/2, Akt1/2/3 and inhibition of cAMP accumulation), agonist concentration-response curves were refitted using the operation model normalized to the transduction ratio of a reference agonist (in this case, BIDI-002) as described previously (Stewart G D et al., 2009). Under these conditions, if the test agonist and the reference agonist activate the two pathways through a common receptor conformation, the log [bias factor] should be 0.0 (or bias factor different from 1.0), irrespective of differences in response amplification between pathways. In contrast, significant deviation of log [bias factor] from 0.0 (or bias factor different from 1.0) indicates the involvement of distinct conformations for the different agonists. All affinities, potencies, efficacies, and cooperativity parameters were estimated as logarithms (Christopoulos, 1998). Results are expressed as means±S.E. unless otherwise stated. Statistical analyses were by Student's t test, or one-way ANOVA followed by Dunnett's Comparison or Tukey's post-hoc test, as appropriate. Values of p<0.05 were considered statistically significant.
A “transduction ratio” is firstly derived for each response (τ/KA, where τ represents efficacy, and KA affinity, of the agonist for each GPCR conformational state), extracted from each concentration-response curve. “Bias factors” (ΔΔ(τ/KA)) were then calculated by normalizing the transduction ratio to a reference ligand (in this case, Cmpd43) and reference pathway, which here was Akt1/2/3(Thr308) phosphorylation. Lastly, bias factors were plotted on a ‘web of bias’ to visualize the potential for biased agonism. […] Under these conditions, if the test agonist and the reference agonist activate the two pathways through a common receptor conformation, the log [bias factor] should be 0.0 (i.e. the bias factor 1.0), irrespective of differences in response amplification between pathways. In contrast, significant deviation of log [bias factor] away from 0.0 (i.e. where the bias factor is different to 1.0) indicates the involvement of distinct conformations for the different agonists. All affinities, potencies, efficacies, and cooperativity parameters were estimated as logarithms (Kenakin et al. 2012).
Five signaling pathways were examined, namely pERK1/2-phosphorylation, Akt1/2/3(Ser473)-phosphorylation, Akt1(Thr308)-phosphorylation, increases in Ca2+i and inhibition of forskolin-induced cAMP accumulation. An operational model of agonism was fitted to each concentration-response curve to estimate a transduction ratio (τ/KA) for each agonist, at each pathway assessed, as described (FIG. 21B) (Kenakin et al. 2012). Transduction ratios were normalized to a reference agonist (Cmpd43) and a reference pathway (Akt1/2/3(Thr308)-phosphorylation), generating bias factors and therefore allowing quantitative cross-pathway comparison for each agonist.
[3] abbreviates: Table 9, read-out: potency (pEC50) Ca^2+i, hFPR1-FlpInCHO cells in vitro (converted).

The record followed here is patent US10328075B2, “Method of treatment and compounds for use therein” (Baker Heart and Diabetes Institute, priority 2015, dated 2019).

Like-named read-outs stand apart in the source and are kept apart here.

Turning to `Cc1cc(Cc2cccnc2)c(=O)n(CC(=O)Nc2ccc(Cl)cc2)n1` [MIPS-0010396], the EC50 was 33100 nM at hFPR1 [1] (setting [3]) and 33100 nM on hFPR1 [1] (Table 10, receptor not given, ND = Not detectable, read-out: Calcium pEC50 (converted)). In addition, at hFPR1 [1] (Table 10, receptor not given, ND = Not detectable), the “Calcium Rmax” value amounted to 22 ± 2. At hFPR1 [2], the “Bias (away from Ca2+i), hFPR1-FlpInCHO cells in vitro” value is given as “Strong”. For the same compound, the “Biased agonism / bias away from Ca2+i” value on hFPR1 [2] (in words) is “displays Ca2+i bias”.
On to `CC(C)C1C(NC(=O)Nc2ccc(Cl)cc2)C(=O)N(c2ccccc2)N1C` (centres unmarked) [BIDI-002], for which the Emax on hFPR1 [1] (Table 1, percentage of [Ca^2+]i mobilization elicited by ATP, read-out: Emax (%), [Ca^2+]i mobilization, hFPR1-Flpln-CHO) was determined as 43 ± 6%; on hFPR1 [1] (Table 8, percent of response elicited by ATP, read-out: Emax, [Ca^2+]i mobilization, hFPR1-Flpln-CHO), 43 ± 6%. In addition, the EC50 was 11 nM on hFPR1 [1] (Table 1, read-out: pEC50, [Ca^2+]i mobilization, hFPR1-Flpln-CHO (converted)); 10 nM on hFPR1 [1] (Table 8, read-out: pEC50, [Ca^2+]i mobilization, hFPR1-Flpln-CHO (converted)); 11 nM on hFPR1 [1] (setting [3]). The “ΔLog(τ/KA), [Ca^2+]i mobilization, hFPR1-Flpln-CHO” value at hFPR1 [1] (Table 8, normalized transduction coefficient, reference agonist Cmpd43) came to 0.0. In addition, the “Log(τ/KA), [Ca^2+]i mobilization, hFPR1-Flpln-CHO” value at hFPR1 [1] (Table 8, transduction coefficient) is on record as 8.0 ± 0.2. Besides, the “Bias (away from Ca2+i), hFPR1-FlpInCHO cells in vitro” value on hFPR1 [2] is “No”. The “Preference to Akt phosphorylation, ERK phosphorylation and cAMP accumulation (degree of bias)” value on hFPR1 [2] (operational model, relative to BIDI-002, hFPR receptors) is on record as “approximately 20 fold”.
